Data published in publication PMC8472154 (Molecules, 2021).
Where two headings read alike, the source gives them in different places. Marks after values point to notes of the source that are not given here.

How the values were obtained:
[1] = test system: methicillin-resistant S. aureus 15 (MRSA 15); test: Agar disc diffusion; format: cell-based, Staphylococcus aureus; settings: 5 µL per 6 mm disc, 24 h, diameter including disc, chloramphenicol 30 μg/mL
Method: (§1) The Gram negative bacterium Escherichia coli DSM 1077, and the Gram positive Staphylococcus aureus ATCC 6538 and the methicillin-resistant S. aureus 15 (MRSA 15) were used in the present study. The bacterial strains were recovered from −80 °C in the culture medium Brain Heart Infusion (BHI, Oxoid, Basingstock, UK), when required agar (VWR, Radnor, Philadelphia, PA, USA) at 1.5% w/v.
(§2) The bacterial susceptibility to the combinations Ro:La:Ca at ratio 1:1:1, Ro:La:Ca at ratio 2/3:1/6:16, Ro:La:Ca at ratio 1/6:2/3:16, Ro:La:Ca at ratio 1/6:1/6:2/3, and the components linalool, 1,8 cineole, and camphor, were performed by the agar disc diffusion technique as previously described. Briefly, 100 µL of the bacterial suspension at an OD600nm 0.3–0.4 was inoculated in BHI agar, and sterile discs (∅ 6 mm) were distributed over the surface. A volume of 5 µL of each EO and the individual components 1,8-cineole (52.62 mg/mL), and linalool (16.13 mg/mL), were deposited in the center of each disc. The plates were incubated for 24 h. The diameter of the inhibition zone including the disc was measured. The assay was performed in triplicate (n = 6).

S. aureus ATCC 6538 = test: Agar disc diffusion; format: cell-based, Staphylococcus aureus; settings: 5 µL per 6 mm disc, 24 h, diameter including disc, chloramphenicol 30 μg/mL
Method: as §1, §2

[2] = Nitric oxide free radical scavenging activity (sodium nitroprusside); design: key to Half Maximal Inhibitory Concentration IC50 NO.: ---: no activity; settings: for Half Maximal Inhibitory Concentration IC50 NO.: mean ± SD, triplicate; for nitric oxide radical scavenging activity: at the concentrations permitted to evaluate, Figure 3C
Method: The essential oil NO scavenging activity was estimated using the protocol described by El Guendouz et al. The inhibition percentage was calculated using the formula: Inhibition = [(A0 − (A1 − A2)/A0 × 100]. The A0 is the absorbance of sodium nitroprusside without sample, A1 and A2 were the absorbance of the sample with and without sodium nitroprusside.

acetylcholinesterase [3] = biological target: T1, acetylcholinesterase (Homo sapiens, UniProt P22303); settings: cited from earlier work
T1 sequence (P22303 32-614, species assumed): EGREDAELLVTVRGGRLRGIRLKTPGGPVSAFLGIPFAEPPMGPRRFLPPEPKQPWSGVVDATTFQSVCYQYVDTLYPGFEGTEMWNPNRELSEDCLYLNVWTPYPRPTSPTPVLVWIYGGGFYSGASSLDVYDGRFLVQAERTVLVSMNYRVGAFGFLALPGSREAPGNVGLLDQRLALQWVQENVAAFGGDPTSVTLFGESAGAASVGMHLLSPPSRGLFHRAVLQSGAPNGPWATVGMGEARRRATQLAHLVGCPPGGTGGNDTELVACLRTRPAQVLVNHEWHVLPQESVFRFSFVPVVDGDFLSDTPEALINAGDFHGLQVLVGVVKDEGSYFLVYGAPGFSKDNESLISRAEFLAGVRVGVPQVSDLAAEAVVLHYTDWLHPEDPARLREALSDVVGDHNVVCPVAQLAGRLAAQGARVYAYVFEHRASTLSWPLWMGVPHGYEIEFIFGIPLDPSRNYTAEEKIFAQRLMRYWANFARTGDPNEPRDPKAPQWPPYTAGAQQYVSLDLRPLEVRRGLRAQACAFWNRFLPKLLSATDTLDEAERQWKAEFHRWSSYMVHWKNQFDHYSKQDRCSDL

5-lipoxygenase = 5-lipoxygenase (Glycine max, UniProt P08170); test: Lipoxygenase inhibition assay (linoleic acid substrate); format: biochemical
Sequence of 5-lipoxygenase (P08170 whole entry): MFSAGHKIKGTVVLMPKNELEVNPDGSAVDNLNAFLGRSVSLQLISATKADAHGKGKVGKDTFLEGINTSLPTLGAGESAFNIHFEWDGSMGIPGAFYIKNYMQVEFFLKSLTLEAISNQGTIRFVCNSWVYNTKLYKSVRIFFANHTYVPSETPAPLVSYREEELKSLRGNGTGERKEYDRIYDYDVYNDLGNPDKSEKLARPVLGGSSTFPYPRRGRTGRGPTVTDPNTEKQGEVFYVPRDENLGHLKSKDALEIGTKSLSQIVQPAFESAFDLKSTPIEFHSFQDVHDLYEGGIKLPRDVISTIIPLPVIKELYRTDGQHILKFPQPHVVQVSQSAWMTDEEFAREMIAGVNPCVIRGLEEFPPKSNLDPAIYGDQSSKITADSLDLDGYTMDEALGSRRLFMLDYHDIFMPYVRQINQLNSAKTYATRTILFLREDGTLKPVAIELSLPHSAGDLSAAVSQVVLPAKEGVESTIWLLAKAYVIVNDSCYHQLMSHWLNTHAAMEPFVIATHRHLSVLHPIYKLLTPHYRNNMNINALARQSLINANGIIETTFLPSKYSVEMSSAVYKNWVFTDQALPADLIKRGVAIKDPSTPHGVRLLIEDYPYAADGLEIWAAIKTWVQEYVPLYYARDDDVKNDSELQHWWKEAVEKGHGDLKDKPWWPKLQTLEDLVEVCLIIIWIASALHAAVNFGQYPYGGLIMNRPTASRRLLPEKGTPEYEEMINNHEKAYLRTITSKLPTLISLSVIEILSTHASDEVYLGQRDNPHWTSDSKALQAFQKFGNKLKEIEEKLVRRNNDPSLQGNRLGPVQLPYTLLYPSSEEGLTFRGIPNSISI
Method: The 5-lipoxygenase assay was carried out according to the method described by El Guendouz et al. The following formula was used to determine the percentage of inhibition action: Inhibition = [(A0 − A1)/A0) × 100]; where A0 is the absorbance of the control and A1 is the absorbance of the sample.

tyrosinase [4] = test: Tyrosinase inhibition assay (L-DOPA oxidation); format: biochemical; design: inhibition: dose or concentration left out as unconfirmed; settings: Figure 4C; read-out: tyrosinase inhibition percentage, major terpenes
Method: (§3) The tyrosinase inhibition was carried out by the tyrosinase-dependent L-3,4-dihydroxyphenylalanine (L-DOPA) oxidation assay as previously described. The following formula was used to determine the percentage of inhibition action: Inhibition = [(A0 − A1)/A0) × 100]; with A0 as the absorbance of the control and A1 as the absorbance of the sample.

E. coli DSM 1077 = test: Agar disc diffusion; format: cell-based, Escherichia coli; settings: 5 µL per 6 mm disc, 24 h, diameter including disc, chloramphenicol 30 μg/mL
Method: as §1, §2

acetylcholinesterase [5] = biological target: T1, acetylcholinesterase; test: biochemical; format: biochemical
Method: The inhibitory activity of the essential oils on acetylcholinesterase was evaluated according to the method previously described. The following formula was used to determine the percentage of inhibition action: Inhibition = [(A0 − A1)/A0) × 100]; where A0 is the absorbance of the control and A1 is the absorbance of the sample.

[6] = Hydrogen peroxide scavenging activity (colorimetric); design: key: ---: no activity; settings: mean ± SD, triplicate
Method: The scavenging hydrogen peroxide was evaluated by a colorimetric assay according to Gupta and Sharma. […] Tests were carried out in triplicate.

[7] = Superoxide anion radical scavenging (nonenzymatic PMS-NADH system); design: key: ---: no activity; settings: mean ± SD, triplicate
Method: Superoxide anion free radical inhibition ability was evaluated using a nonenzymatic PMS-NADH (phenazine methosulfate–nicotinamide adenine dinucleotide) system as previously reported. The inhibition quantification was performed as aforementioned.

α-glucosidase = α-glucosidase (Saccharomyces cerevisiae, UniProt P53341); test: α-Glucosidase inhibition assay; format: biochemical; settings: mean ± SD, triplicate
Sequence of α-glucosidase (P53341 whole entry): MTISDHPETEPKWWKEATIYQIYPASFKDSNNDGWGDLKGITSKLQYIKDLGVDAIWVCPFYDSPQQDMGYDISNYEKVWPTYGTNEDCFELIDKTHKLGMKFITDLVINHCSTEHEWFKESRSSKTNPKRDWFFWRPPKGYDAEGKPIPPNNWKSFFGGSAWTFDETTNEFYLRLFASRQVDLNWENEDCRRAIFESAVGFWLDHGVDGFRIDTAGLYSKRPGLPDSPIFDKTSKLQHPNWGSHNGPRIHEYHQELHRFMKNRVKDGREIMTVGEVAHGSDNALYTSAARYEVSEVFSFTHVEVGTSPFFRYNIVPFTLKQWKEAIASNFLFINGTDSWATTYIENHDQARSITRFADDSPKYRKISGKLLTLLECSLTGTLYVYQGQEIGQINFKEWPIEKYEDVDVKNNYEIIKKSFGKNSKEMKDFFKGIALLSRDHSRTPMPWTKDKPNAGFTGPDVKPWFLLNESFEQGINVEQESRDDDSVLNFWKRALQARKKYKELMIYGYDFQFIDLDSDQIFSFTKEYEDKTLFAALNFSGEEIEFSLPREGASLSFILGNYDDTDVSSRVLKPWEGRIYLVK
Method: The α-glucosidase inhibitor capacity of the essential oils was determined as described by El-Guendouz et al. The crease of absorbance was performed at 405 nm. The inhibition percentage of the enzyme was calculated as follows: I% = [(A0 −A1)/A0) × 100]; where A0 is the absorbance of the control and A1 is the absorbance of the sample. The trials were triplicated.

S. aureus = test system: S. aureus; design: method as in PMID 12485339; settings: previous study; cited from earlier work
[8] = DPPH free radical-scavenging activity; settings: mean ± SD, triplicate
Method: The radical scavenging capacity was estimated according to Bounatirou et al. using 2,20-diphenylpicrylhydrazyl (DPPH) free radicals. The radical inhibition percentage was calculated with the equation: Inhibition = [(A0 − A1)/A0 × 100]; A0 stands for the absorbance of the control and A1 stands for the absorbance of the sample. […] Tests were carried out in triplicate.

E. coli = test system: E. coli; design: method as in PMID 12485339; settings: previous study; cited from earlier work
MRSA strains = test system: MRSA strains; design: method as in PMID 31461850; settings: cited from earlier work
E. coli DSM 1077 biofilm = test: Biofilm formation inhibition (crystal violet); format: cell-based, Escherichia coli; settings: EO at 2.5, 5 and 10 μL/mL; chlorohexidine 0.2% v/v; 24 h; versus control culture; Figure 5
Method: as §1
(§4) The inhibition of biofilm formation was done using the crystal violet assay. Briefly, 150 µL of an overnight culture prepared as previously mentioned was centrifuged for 10 min at 4 °C. For the preparation of the bacterial suspension, 150 µL of BHI medium supplemented with EOs at the 2.5 µL/mL, 5 µL/mL and 10 µL/mL, chlorhexidine 0.2% (v/v), n-propanol (20%), was added to the centrifuged bacterial culture. Each well containing 180 µL of BHI supplemented with EOs at the appropriate concentration was inoculated with 20 µL of the previous bacterial suspension. The cultures with no EO and in the presence of chlorohexidine (0.2 %, v/v), were used as control. The culture was left to adhere and form a biofilm for 24 h. After this incubation time, non-adherent cells were eliminated and the wells were washed twice with PBS; then, the microplate was left to dry for 15–30 min. […] The absorbance was measured at 595 nm after 15–20 min incubation.

MRSA 15 biofilm = test: Biofilm formation inhibition (crystal violet); format: cell-based, Staphylococcus aureus; settings: EO at 2.5, 5 and 10 μL/mL; chlorohexidine 0.2% v/v; 24 h; versus control culture; Figure 5
Method: as §1, §4

[9] = test system: S. aureus ATCC 6538 biofilm; test: Biofilm formation inhibition (crystal violet); format: cell-based, Staphylococcus aureus; settings: EO at 2.5, 5 and 10 μL/mL; chlorohexidine 0.2% v/v; 24 h; versus control culture; Figure 5
Method: as §1, §4

tyrosinase [10] = biological target: T2, tyrosinase (Homo sapiens, UniProt P14679); test: Tyrosinase inhibition assay (L-DOPA oxidation); format: biochemical; design: inhibition: dose or concentration left out as unconfirmed; settings: 50 mg/mL; Figure 4C
T2 sequence (P14679 19-529): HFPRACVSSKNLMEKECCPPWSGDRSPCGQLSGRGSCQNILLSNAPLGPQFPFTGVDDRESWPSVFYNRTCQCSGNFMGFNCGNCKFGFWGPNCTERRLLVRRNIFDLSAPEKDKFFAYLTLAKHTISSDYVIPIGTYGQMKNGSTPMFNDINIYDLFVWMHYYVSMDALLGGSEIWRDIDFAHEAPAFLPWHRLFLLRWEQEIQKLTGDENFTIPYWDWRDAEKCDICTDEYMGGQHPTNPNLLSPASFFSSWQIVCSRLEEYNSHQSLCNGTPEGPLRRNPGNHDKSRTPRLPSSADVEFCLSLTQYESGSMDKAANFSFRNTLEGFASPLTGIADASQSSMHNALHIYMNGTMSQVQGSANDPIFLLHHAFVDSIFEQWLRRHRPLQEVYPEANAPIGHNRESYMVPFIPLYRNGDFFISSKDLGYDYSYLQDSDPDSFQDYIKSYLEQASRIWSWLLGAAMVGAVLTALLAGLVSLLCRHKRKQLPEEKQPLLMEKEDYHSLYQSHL
Method: as §3

SMILES	Inhibition Zone Methicillin Resistant S. aureus 15 [1]	Inhibition Zone S. aureus ATCC 6538 (S. aureus ATCC 6538)	Half Maximal Inhibitory Concentration IC50 NO. [2]	IC50 (acetylcholinesterase [3]) [µM]	lipoxygenase inhibition / anti-inflammatory activity (5-lipoxygenase)	inhibition (tyrosinase [4]) [%]	Inhibition Zone E. coli DSM 1077 (E. coli DSM 1077)	nitric oxide radical scavenging activity [2]	Half Maximal Inhibitory Concentration IC50 H2O2 [6]	Half Maximal Inhibitory Concentration IC50 Superoxide [7]	also measured
CC12CCC(CC1)C(C)(C)O2 [1,8-Cineole]	12.16 ± 0.47 ^b mm	10.5 ± 0.70 ^c mm	---	64.8	weak anti-inflammatory activity	> 20	12.16 ± 0.62 ^b,c mm				Inhibition Zone S. aureus ATCC 6538 (S. aureus ATCC 6538; listed as 1,8-cineole): 10.5 ± 0.70 mm; IC50 (acetylcholinesterase [5]): 1170 µM
CC1(C)C2CCC1(C)C(O)C2 (stereo not shown) [Borneol]						> 20		had activity	---		IC50 (acetylcholinesterase [5]; mean ± SD, triplicate, read-out: Half Maximal Inhibitory Concentration IC50 Acetylcholinesterase (converted)): 3110 µM
CC12CCC(CC1=O)C2(C)C (stereo not shown) [Camphor]	11.67 ± 1.02 ^b,c mm	10.5 ± 1.22 ^c mm	---		weak anti-inflammatory activity	> 20	13.00 ± 0.40 ^b mm		---	---	Inhibition Zone S. aureus ATCC 6538 (S. aureus ATCC 6538; listed as camphor): 10.5 ± 1.22 mm
O=C(N[C@H](CO)[C@H](O)c1ccc([N+](=O)[O-])cc1)C(Cl)Cl [Chloramphenicol]	6.00 ± 0.00 ^d mm	10.16 ± 0.70 ^c mm									zone of inhibition at 30 µg/mL ([1]; Staphylococcus aureus, MRSA): 6 mm; zone of inhibition at 30 µg/mL (S. aureus ATCC 6538; Staphylococcus aureus, ATCC6538): 10.2 ± 0.7 mm; zone of inhibition at 30 µg/mL (E. coli DSM 1077; Escherichia coli, DSM1077): 10.8 ± 0.47 mm
C=C(C)[C@H]1CC=C(C)CC1 [Limonene]								had activity			Half Maximal Inhibitory Concentration IC50 Lipoxygenase (5-lipoxygenase; mean ± SD, triplicate): 0.11 ± 0.01 ^f mg/mL; Half Maximal Inhibitory Concentration IC50 α-Glucosidase (α-glucosidase): 1.18 ± 0.06 ^a mg/mL; Half Maximal Inhibitory Concentration IC50 Acetylcholinesterase (acetylcholinesterase [5]; mean ± SD, triplicate): 0.08 ± 0.00 ^e,f,g,h,i mg/mL
C=CC(C)(O)CCC=C(C)C (stereo not shown) [Linalool]	13.83 ± 1.24 ^b mm	12.83 ± 0.47 ^b,c mm	---		weak anti-inflammatory activity	> 20	15.67 ± 0.23 ^a mm			20.41 ± 1.47 ^b mg/mL	inhibition zone against S. aureus (S. aureus): 13.0 ± 4.2 mm; Inhibition Zone Methicillin Resistant S. aureus 15 ([1]; listed as linalool): 13.83 ± 1.24 mm; Inhibition Zone S. aureus ATCC 6538 (S. aureus ATCC 6538; listed as linalool): 12.83 ± 0.47 mm; Half Maximal Inhibitory Concentration IC50 NO. ([2]; listed as linalool): had no ability; Half Maximal Inhibitory Concentration IC50 DPPH [8]: 102.34 ± 3.13 ^b mg/mL; Half Maximal Inhibitory Concentration IC50 α-Glucosidase (α-glucosidase; listed as linalool): did not have activity; Inhibition Zone E. coli DSM 1077 (E. coli DSM 1077; listed as linalool): 15.67 ± 0.23 mm; inhibition zone against E. coli (E. coli): 10.3 ± 0.5 mm
C=CC(C)(CCC=C(C)C)OC(C)=O (stereo not shown) [Linalyl acetate]			---			> 20			---	18.23 ± 0.01 ^b mg/mL	MIC against MRSA strains (MRSA strains): 450.50 ± 0.00 μL/mL; Half Maximal Inhibitory Concentration IC50 NO. ([2]; listed as linalyl acetate): had no ability; Half Maximal Inhibitory Concentration IC50 DPPH [8]: 148.61 ± 1.28 ^a mg/mL; Half Maximal Inhibitory Concentration IC50 α-Glucosidase (α-glucosidase; listed as linalyl acetate): did not have activity
[H]/N=C(\N/C(=N/[H])NCCCCCCNC(=N)NC(=N)Nc1ccc(Cl)cc1)Nc1ccc(Cl)cc1 [chlorohexidine]											biofilm formation of E. coli DSM 1077 (E. coli DSM 1077 biofilm): reduced biofilm formation; biofilm formation of MRSA 15 (MRSA 15 biofilm): reduced biofilm formation; biofilm formation of S. aureus ATCC 6538 [9]: induced the biofilm formation
CC1=CCC2CC1C2(C)C (stereo not drawn) [α-Pinene]				147				had activity	---		tyrosinase inhibition percentage, major terpenes (tyrosinase [10]): lowest ability
CC1=CC[C@@H](C(C)(C)O)CC1 [α-Terpineol]				8430	weak anti-inflammatory activity	> 20		had activity	---		Half Maximal Inhibitory Concentration IC50 α-Glucosidase (α-glucosidase): had no activity
